According to patent publication US20220169629A1, “PESTICIDALLY ACTIVE DIAZINE-AMIDE COMPOUNDS” (SYNGENTA CROP PROTECTION AG, priority 2019, published 2022):

What was measured:
Format in all cases: in vivo
[1] = tested on: Chilo suppressalis (striped rice stemborer); assay: Example B4: Chilo suppressalis (striped rice stemborer), artificial diet, L2 larvae; conditions: 144 h, application rate of 200 ppm, 6 days after infestation, L2 larvae on artificial diet, read-out: control in at least one of the three categories (mortality, anti-feeding or growth inhibition)
[2] = tested on: Plutella xylostella (diamond back moth); assay: Example B5: Plutella xylostella (diamond back moth), artificial diet, 24-well, eggs; conditions: 192 h, application rate of 200 ppm, 8 days after infestation, read-out: control in at least one of the two categories (mortality or growth inhibition)
Method: Example B5: Plutella xylostella (Diamond Back Moth)
24-well microtiter plates with artificial diet were treated with aqueous test solutions prepared from 10′000 ppm DMSO stock solutions by pipetting. After drying, Plutella eggs were pipetted through a plastic stencil onto a gel blotting paper and the plate was closed with it. The samples were assessed for mortality and growth inhibition in comparison to untreated samples 8 days after infestation.

[3] = tested on: Plutella xylostella (diamondback moth); assay: Example B10: Plutella xylostella (diamondback moth), 96-well artificial diet; conditions: 216 h, application rate of 500 ppm, 9 days after infestation, eggs/L1 larvae
Method: Example B10: Plutella xylostella (Diamondback Moth)
96-well microtiter plates containing artificial diet were treated with aqueous test solutions, prepared from 10′000 ppm DMSO stock solutions, by a liquid handling robot. After drying, eggs (˜30 per well) were infested onto a netted lid which was suspended above the diet. The eggs hatch and L1 larvae move down to the diet. The samples were assessed for mortality 9 days after infestation.

[4] = tested on: Tetranychus urticae (two-spotted spider mite); assay: Example B11: Tetranychus urticae (two-spotted spider mite), feeding/contact activity; conditions: foliar, 192 h
Method: Example B11: Tetranychus urticae (Two-Spotted Spider Mite): Feeding/Contact Activity
Bean leaf discs on agar in 24-well microtiter plates were sprayed with aqueous test solutions prepared from 10′000 ppm DMSO stock solutions. After drying the leaf discs were infested with a mite population of mixed ages. The samples were assessed for mortality on mixed population (mobile stages) 8 days after infestation.

CC(NC(=O)c1cc(OCC(F)F)cc(C(F)(F)F)c1)c1nccnc1-c1ccc(OCC(F)F)cn1 (stereo not shown) [Compound P16, 3-(2,2-difluoroethoxy)-N-[1-[3-[5-(2,2-difluoroethoxy)-2-pyridyl]pyrazin-2-yl]ethyl]-5-(trifluoromethyl)benzamide]
≥ 80%: control at 200 ppm [1] | percent control (mortality or growth inhibition) at 200 ppm [2] | mortality at 500 ppm [3] | mortality at 200 ppm [4]
